# Assay results: publication PMC6166654 (Leukemia, 2018)
# Legend:
# TF1/SHP2^D61Y cells = assay: Immunoblot analysis of cell lysates; type: cell-based, human; details: 2 days of SHP099 treatment
# TF1/SHP2^E69K cells [1] = assay: Immunoblot analysis of cell lysates; type: cell-based, human; details: 2 days of SHP099 treatment
# TF-1 cells [2] = assay: Immunoblot analysis of cell lysates; type: cell-based, human
# TF1/SHP2^E69K cells [3] = assay: Cell growth in GM-CSF free medium; type: cell-based, human; details: read-out: cell growth IC50, 5 days
# MV4-11 cells = assay: Immunoblot analysis of cell lysates; type: cell-based
# [4] = tested on: MV4-11 myeloid leukemia cells; assay: Cell growth; type: cell-based; details: read-out: cell growth IC50; MV4-11 cells; 5 days
# TF1/SHP2^E69K cells [5] = assay: Methylcellulose colony formation assay; type: cell-based, human; details: methylcellulose culture, 10 µM SHP099, day 7
# TF-1 cells [6] = assay: Cell growth; type: cell-based, human; details: read-out: cell growth IC50, medium with GM-CSF, 5 days
# TF1/SHP2^E76K cells [7] = assay: Immunoblot analysis of cell lysates; type: cell-based, human; details: 2 days of SHP099 treatment
# TF1/SHP2^A72V cells = assay: Immunoblot analysis of cell lysates; type: cell-based, human; details: 2 days of SHP099 treatment
# TF1/SHP2^E76K cells [8] = assay: Methylcellulose colony formation assay; type: cell-based, human; details: methylcellulose culture, 10 µM SHP099, day 7
# [9] = tested on: SHP2-knocked out TF-1 cell lines (TF1/KO1, TF1/KO2); assay: Cell growth and cell lysate analysis in SHP2 knockout cells; type: cell-based, human; details: medium with GM-CSF
smiles,measurement,setting,value
CC1(N)CCN(c2cnc(-c3cccc(Cl)c3Cl)c(N)n2)CC1 [SHP099],Bcl-XL level,TF1/SHP2^D61Y cells,little effect
same,PARP cleavage,TF1/SHP2^D61Y cells,did not induce
same,pERK1/2 level,TF1/SHP2^D61Y cells,little effect
same,Bcl-XL level,TF1/SHP2^E69K cells [1],reduced
same,PARP cleavage,TF1/SHP2^E69K cells [1],induction
same,pERK1/2 level,TF1/SHP2^E69K cells [1],reduced
same,Bcl-XL level,TF-1 cells [2],reduced
same,PARP cleavage,TF-1 cells [2],induced
same,active ERK,TF-1 cells [2],inhibited
same,IC50,TF1/SHP2^E69K cells [3],1460 ± 460 nM
same,Bcl-XL level,MV4-11 cells,reduced
same,PARP cleavage,MV4-11 cells,induced
same,pERK1/2 level,MV4-11 cells,reduced
same,IC50,[4],320 ± 110 nM
same,GM-CSF hypersensitivity,TF1/SHP2^E69K cells [5],lost
same,cytokine-independent colonies,TF1/SHP2^E69K cells [5],eliminated
same,IC50,TF-1 cells [6],1730 ± 520 nM
same,Bcl-XL level,TF1/SHP2^E76K cells [7],little effect
same,PARP cleavage,TF1/SHP2^E76K cells [7],did not induce
same,pERK1/2 level,TF1/SHP2^E76K cells [7],little effect
same,Bcl-XL level,TF1/SHP2^A72V cells,little effect
same,PARP cleavage,TF1/SHP2^A72V cells,did not induce
same,pERK1/2 level,TF1/SHP2^A72V cells,little effect
same,GM-CSF hypersensitivity,TF1/SHP2^E76K cells [8],did not affect
same,cytokine-independent colonies,TF1/SHP2^E76K cells [8],little effect
same,effects in SHP2-knocked out TF-1 cell lines,[9],little effects
